Measured values: patent US20180311297A1, “PHARMACEUTICAL COMPOSITION FOR INCREASING CONTENT AND AVAILABILITY OF CYCLIC ADENOSINE MONOPHOSPHATE IN A BODY AND PREPARATION THEREOF” (priority 2012, published 2018)
Structures can show the parent of a compound that is named as a salt.

Tests used:
depression patients = conditions: STAR*D study, over 2800 depression patients; cited from earlier work
cAMP = experiment: level of cAMP in hippocampus of normal rats 8 hours after administration (ELISA); type: in vivo, rat; conditions: 8 hours after intragastric 5 mg/kg (positive control drug)
Description: 8 hours after normal rats were intragastrically administered with the pharmaceutical of Embodiment 1, their hippocampi were taken out. The variations in the levels of cAMP and phospho-CREB (p-CREB) in the hippocampus were determined using enzyme-linked immunosorbent assay (ELISA), the variations on the activities of the cAMP-dependent PKA were determined using bioluminescent assay, and the variations in the activities of PDE were determined using a fluorescence method. […] The experimental data were statistically analyzed and plotted using Origin […].5 software. 2. […] The sample was determined using the ParameterTM Cyclic AMP Assay ELISA kit (R&D Systems, Inc., U.S.). The sample was defrosted to room temperature, and the level of cAMP in the sample was determined using competitive ELISA. The value of optical density (OD) of the sample was determined at 450 nm using the multi-mode microplate reader, and the level of cAMP in the sample was calculated according to the standard curve. 5.1 The level of cAMP in the rat's hippocampus: The cAMP concentration in the homogenate of the rat's hippocampus was determined using the ELISA assay, and the level of cAMP contained in the hippocampus tissue was obtained by dividing the […], and is presented as pmol/g tissue (referring to FIG. 5).

forced-swim rats = experiment: forced-swim experiment on rats; type: in vivo, rat; conditions: intragastric, one week; Embodiment 1 medium dose 30 mg/kg/d, or positive control; vs control P<0.05
Excerpt: (§1) The inventor conducted animal behavior experiments, including the tail-hang experiment on mice, the forced-swim experiment on rats, the forced-swim experiment on mice, the unpredictable long-term stimulus experiment on rats, the olfactory bulb lesion experiment on rats and others, according to the pathogenetic mechanism and clinical symptoms of depression.

forced-swim mice = experiment: forced-swim experiment on mice; type: in vivo; conditions: intragastric, one week; Embodiment 1 medium dose 40 mg/kg/d, or positive control; vs control P<0.05
Excerpt: as §1

tail-hanged mice = experiment: tail-hang experiment on mice; type: in vivo; conditions: intragastric, one week; Embodiment 1 medium dose 40 mg/kg/d, or positive control; vs control P<0.05
Excerpt: as §1

[1] = tested on: unpredictably long-term stressed rats; experiment: unpredictable long-term stimulus (CUMS) experiment on rats: body weight measurement; type: in vivo, rat; conditions: CUMS model rats, 21 consecutive days; low dose of Embodiment 1 (15 mg/kg/d) or positive group; compared to control group
Excerpt: (§2) The inventor conducted animal behavior experiments, including the tail-hang experiment on mice, the forced-swim experiment on rats, the forced-swim experiment on mice, the unpredictable long-term stimulus experiment on rats, the olfactory bulb lesion experiment on rats and others, according to the pathogenetic mechanism and clinical symptoms of depression. 1.2 The pharmaceutical composition of Embodiment 1 was intragastrically administered to rats under the chronic unpredictable mild stress (CUMS) model with the dose of 15 mg/kg/d, 30 mg/kg/d and 60 mg/kg/d for 21 consecutive days.

[2] = tested on: unpredictably long-term stressed rats; experiment: unpredictable long-term stimulus (CUMS) experiment on rats: sucrose intake measurement; type: in vivo, rat; conditions: CUMS model rats, 21 consecutive days; low dose of Embodiment 1 (15 mg/kg/d) or positive group; vs control P<0.01
Excerpt: as §2

[3] = tested on: unpredictably long-term stressed rats; experiment: unpredictable long-term stimulus (CUMS) experiment on rats: open field box test; type: in vivo, rat; conditions: CUMS model rats, 21 consecutive days; low dose of Embodiment 1 (15 mg/kg/d) or positive group; vs control P<0.01
Excerpt: as §2

[4] = tested on: unpredictably long-term stressed rats; experiment: unpredictable long-term stimulus (CUMS) experiment on rats: jumping test; type: in vivo, rat; conditions: CUMS model rats, 21 consecutive days; low dose of Embodiment 1 (15 mg/kg/d) or positive group; vs control P<0.01
Excerpt: as §2

[5] = tested on: olfactory bulb lesion model rats; experiment: olfactory bulb lesion experiment: open field box test; type: in vivo, rat; conditions: 24 consecutive days, high dose of Embodiment 1 (60 mg/kg/d) or Paroxetine of 3 mg/kg/d, compared to control group
Excerpt: The inventor conducted animal behavior experiments, including the tail-hang experiment on mice, the forced-swim experiment on rats, the forced-swim experiment on mice, the unpredictable long-term stimulus experiment on rats, the olfactory bulb lesion experiment on rats and others, according to the pathogenetic mechanism and clinical symptoms of depression. 1.3 The pharmaceutical composition of Embodiment 1 was intragastrically administered to olfactory bulb lesion model rats with the dose of 15 mg/kg/d, 30 mg/kg/d and 60 mg/kg/d for 24 consecutive days.

[6] = tested on: phosphodiesterase 4 (PDE4); conditions: cited from earlier work

Structure (SMILES): Cl.O=C1CC2(CCCC2)CC(=O)N1CCCCN1CCN(c2ncccn2)CC1 [Buspar®]
- remission rate (depression patients): about 30%

Structure (SMILES): Br.CN(C)CCCC1(c2ccc(F)cc2)OCc2cc(C#N)ccc21 (stereo not shown) [Celexa®]
- remission rate (depression patients): about 30%

Structure (SMILES): COc1ccc(C(CN(C)C)C2(O)CCCCC2)cc1.Cl (stereo not shown) [Effexor®]
- remission rate (depression patients): about 30%

Structure (SMILES): Fc1ccc([C@@H]2CCNC[C@H]2COc2ccc3c(c2)OCO3)cc1 [Paroxetine, Paroxetine hydrochloride]
- initiation of the cAMP-PKA-CREB (p-CREB) pathway (cAMP): cannot initiate
- non-movement time for the forced-swim rats (forced-swim rats): significantly shorter
- non-movement time for the forced-swim mice (forced-swim mice): significantly shorter
- non-movement time for the tail-hanged mice (tail-hanged mice): significantly shorter
- body weight gains [1]: significantly increased
- sucrose consumption [2]: significantly increased
- horizontal movement and vertical movement [3]: significantly increased
- number of errors in rat jumping trial [4]: significantly decreased
- decrease of the horizontal movement and vertical movement caused by the olfactory bulb lesion (open field box test) [5]: significantly improved

Structure (SMILES): COc1ccc(C2CNC(=O)C2)cc1OC1CCCC1 (stereo not shown) [Rolipram®]
- side effects ([6]; background statement): severe emesis
- anti-depression effect ([6]; experimental results referred to in background): significant anti-depression effect

Structure (SMILES): CC(NC(C)(C)C)C(=O)c1cccc(Cl)c1.Cl (stereo not shown) [Wellbutrin®]
- remission rate (depression patients): about 30%

Structure (SMILES): CN[C@H]1CC[C@@H](c2ccc(Cl)c(Cl)c2)c2ccccc21.Cl [Zoloft®]
- remission rate (depression patients): about 30%
